In ChEMBL document CHEMBL1147145, “Scaffold targeting drug-resistant colon cancers” (J Med Chem, 2007) one finds inhibition of growth and IC50 data, which are given here for 32 compounds.

Non-standard residues stand in square brackets, D forms with d. Residues, ends and D or L forms follow the SMILES beside them. *: point of attachment. NMeF = CN[C@@H](Cc1ccccc1)C(=O)O; Cha = N[C@@H](CC1CCCCC1)C(=O)O; NMeL = CN[C@@H](CC(C)C)C(=O)O; dNMeL = CN[C@H](CC(C)C)C(=O)O; dNMeV = CN[C@@H](C(=O)O)C(C)C; Cbz = O=C(OCc1ccccc1)*; Sar = CNCC(=O)O

For assay [1], the system named is HCT-15. In words: Growth inhibition in HCT15 cells assessed as inhibition of [3H]thymidine incorporation at 1 uM relative to control. The assay is classed as functional. As to conditions: Homo sapiens, read-out: TGI.
Assay [2] deals with HCT-116. In words: Growth inhibition in HCT116 cells assessed as inhibition of [3H]thymidine incorporation at 1 uM relative to control. The assay is classed as functional. The settings on record: Homo sapiens, read-out: TGI.
The subject of assay [3] is HCT-15. In words: Growth inhibition in HCT15 cells assessed as inhibition of [3H]thymidine incorporation. Type of assay: functional, cell-based. The settings on record: Homo sapiens. On the technique in general: Dividing cells build labelled thymidine or BrdU into new DNA.
The nature of assay [4]: Growth inhibition in WS1 cells assessed as inhibition of [3H]thymidine incorporation. Type of assay: functional, cell-based. As to conditions: Homo sapiens.
Assay [5] relates to HCT-116. In words: Growth inhibition in HCT116 cells assessed as inhibition of [3H]thymidine incorporation. The assay is classed as functional, cell-based. As to conditions: Homo sapiens.

As a reminder, the IC50 is the concentration that gives 50% inhibition.

On to `CC(C)C[C@@H]1NC(=O)[C@H](C(C)C)NC(=O)[C@H](CC(C)C)N(C)C(=O)[C@@H](CC(C)C)N(C)C(=O)[C@H](Cc2ccccc2)NC1=O`, for which the inhibition of growth at 1 µM was 30% with HCT-15 [1] and 23% with HCT-116 [2].
On the same counts, the results for `CC(C)C[C@@H]1NC(=O)[C@@H](C(C)C)N(C)C(=O)[C@H](CC(C)C)NC(=O)[C@@H](CC(C)C)NC(=O)[C@H](Cc2ccccc2)NC1=O` are 0% and 0%.
On the same counts, the results for `CC(C)C[C@@H]1NC(=O)[C@H](C(C)C)NC(=O)[C@H](CC(C)C)NC(=O)[C@@H](CC(C)C)N(C)C(=O)[C@H](Cc2ccccc2)NC1=O` (cyclo([dNMeL]LVLF)) are 10% and 45%.
On to `CC(C)C[C@@H]1NC(=O)[C@H](Cc2ccccc2)NC(=O)[C@H](CC(C)C)NC(=O)[C@H](C(C)C)NC(=O)[C@H](CC(C)C)NC1=O` (cyclo(FLLVL)), for which the IC50 was determined as 21 µM in the assay with HCT-15 [3] and 300 µM in assay [4]. Moreover, the inhibition of growth at 1 µM with HCT-15 [1] was found to be 10%; in the assay on HCT-116 [2], 28%.
For `CC(C)C[C@@H]1NC(=O)[C@@H](CC(C)C)NC(=O)[C@H](Cc2ccccc2)NC(=O)[C@H](CC(C)C)NC(=O)[C@@H](C(C)C)NC1=O` (cyclo(F[dL]L[dV]L)), the inhibition of growth at 1 µM in the assay on HCT-15 [1] is 20%; in the assay with HCT-116 [2], 16%.
As to `CC(C)C[C@@H]1NC(=O)[C@H](Cc2ccccc2)NC(=O)[C@H](CC(C)C)NC(=O)[C@@H](C(C)C)NC(=O)[C@H](CCCCNC(=O)OCc2ccccc2)NC1=O` (cyclo(FLK(Cbz)[dV]L)), the inhibition of growth at 1 µM with HCT-15 [1] came to 3%; with HCT-116 [2] it was 16%.
`CC(C)C[C@@H]1NC(=O)[C@H](Cc2ccccc2)NC(=O)[C@H](CC(C)C)NC(=O)[C@@H](Cc2ccccc2)NC(=O)[C@H](CC(C)C)NC1=O` (cyclo(FLL[dF]L)): the inhibition of growth at 1 µM with HCT-15 [1] and in the assay with HCT-116 [2] was 11% throughout.
`CC(C)C[C@@H]1NC(=O)[C@@H](C(C)C)NC(=O)[C@H](CC(C)C)NC(=O)[C@H](CC(C)C)N(C)C(=O)[C@H](Cc2ccccc2)NC1=O` (cyclo(F[NMeL]L[dV]L)): the inhibition of growth at 1 µM in the assay on HCT-15 [1] is 19%; in the assay with HCT-116 [2] it was 38%.
For `CC(C)C[C@@H]1NC(=O)[C@H](Cc2ccccc2)NC(=O)[C@@H](Cc2ccccc2)NC(=O)[C@H](C(C)C)NC(=O)[C@H](CC(C)C)NC1=O`, the IC50 in the assay with HCT-15 [3] was 300 µM; in the assay on HCT-116 [5], 200 µM. Also, the inhibition of growth at 1 µM in the assay with HCT-15 [1] was 14%; with HCT-116 [2] it was 35%.
Turning to `CC(C)C[C@@H]1NC(=O)[C@H](Cc2ccccc2)NC(=O)[C@H](CC(C)C)NC(=O)[C@@H](CO)NC(=O)[C@H](CC(C)C)NC1=O` (cyclo(FLL[dS]L)), the figures for the inhibition of growth at 1 µM with HCT-15 [1] and with HCT-116 [2] were 11% and 0%, respectively.
On the same counts, the results for `CC(C)C[C@@H]1NC(=O)[C@H](Cc2ccccc2)NC(=O)[C@@H](CC(C)C)N(C)C(=O)[C@H](C(C)C)NC(=O)[C@H](CC(C)C)NC1=O` (cyclo(FLLV[dNMeL])) are 33% and 25%.
Taken in the same sequence, the figures for `CC(C)C[C@@H]1NC(=O)[C@H](CC(C)C)NC(=O)[C@H](Cc2ccccc2)N(C)C(=O)[C@H](CC(C)C)NC(=O)[C@H](C(C)C)NC1=O` (cyclo([NMeF]LLVL)) were 18% and 2%.
Taken in the same sequence, the figures for `CC(C)C[C@@H]1NC(=O)[C@H](C(C)C)NC(=O)[C@@H](CC(C)C)NC(=O)[C@@H](CC(C)C)NC(=O)[C@H](Cc2ccccc2)NC1=O` (cyclo(F[dL][dL]VL)) were 40% and 28%.
Consider `CC(C)C[C@@H]1NC(=O)[C@H](Cc2ccccc2)NC(=O)[C@H](CC(C)C)NC(=O)[C@H](C(C)C)NC(=O)[C@@H](CC(C)C)NC1=O` (cyclo(FL[dL]VL)), for which the results for the inhibition of growth at 1 µM in the assay on HCT-15 [1] and in the assay with HCT-116 [2] were 15% and 0%, respectively.
As for `CC(C)C[C@@H]1NC(=O)[C@H](Cc2ccccc2)NC(=O)[C@H](CC(C)C)NC(=O)[C@@H](C(C)C)NC(=O)[C@H](CC(C)C)NC1=O` (cyclo(FLL[dV]L)), the inhibition of growth at 1 µM in the assay with HCT-15 [1] and in the assay on HCT-116 [2] was 48% in each case. In assay [4], the IC50 turned out to be 20 µM.
`CC(C)C[C@@H]1NC(=O)[C@H](Cc2ccccc2)NC(=O)[C@@H](CC(C)C)NC(=O)[C@@H](C(C)C)NC(=O)[C@H](CC(C)C)NC1=O` (cyclo(FLL[dV][dL])): the values for the inhibition of growth at 1 µM in the assay with HCT-15 [1] and in the assay on HCT-116 [2] were 21% and 41%, respectively.
As to `CC(C)C[C@@H]1NC(=O)[C@H](Cc2ccccc2)NC(=O)[C@@H](Cc2ccccc2)N(C)C(=O)[C@H](C(C)C)NC(=O)[C@H](CC(C)C)NC1=O`, the IC50 stood at 0.65 µM in the assay on HCT-15 [3] and 200 µM in assay [4]. Besides, the inhibition of growth at 1 µM with HCT-15 [1] was 57%; with HCT-116 [2], 59%.
With `CC(C)C[C@@H]1NC(=O)[C@@H](Cc2ccccc2)NC(=O)[C@@H](CC(C)C)NC(=O)[C@@H](C(C)C)N(C)C(=O)[C@H](CC(C)C)NC1=O`, the results for the inhibition of growth at 1 µM with HCT-15 [1] and in the assay on HCT-116 [2] were 35% and 44%, respectively.
With `CC(C)C[C@@H]1NC(=O)[C@@H](CC(C)C)N(C)C(=O)[C@H](Cc2ccccc2)NC(=O)[C@H](C(C)C)NC(=O)[C@H](C(C)C)NC1=O`, the IC50 in the assay with HCT-15 [3] worked out at 1.2 µM; in assay [4] it was 200 µM; in the assay with HCT-116 [5] it was 2 µM. For the same compound, the inhibition of growth at 1 µM in the assay with HCT-15 [1] is 48%; with HCT-116 [2] it was 42%.
`CC(C)C[C@@H]1NC(=O)CN(C)C(=O)[C@H](Cc2ccccc2)NC(=O)[C@H](C(C)C)NC(=O)[C@@H](C(C)C)NC1=O` (cyclo(F[Sar]L[dV]V)): the inhibition of growth at 1 µM with HCT-15 [1] came out at 18%; with HCT-116 [2], 20%.
Turning to `CC(C)C[C@@H]1NC(=O)[C@H](Cc2ccccc2)NC(=O)[C@H](CC(C)C)NC(=O)[C@@H](C(C)C)NC(=O)[C@H](CCCCN)NC1=O` (cyclo(FLK[dV]L)), the results for the inhibition of growth at 1 µM in the assay with HCT-15 [1] and in the assay on HCT-116 [2] were 18% and 11%, respectively.
Taken in the same sequence, the figures for `CC(C)C[C@@H]1NC(=O)[C@H](C(C)C)NC(=O)[C@H](CC(C)C)NC(=O)[C@H](CC(C)C)N(C)C(=O)[C@H](Cc2ccccc2)NC1=O` (cyclo(F[NMeL]LVL)) were 35% and 59%.
As for `CC(C)C[C@@H]1NC(=O)[C@H](Cc2ccccc2)NC(=O)[C@@H](CC(C)C)NC(=O)[C@H](C(C)C)NC(=O)[C@H](CC(C)C)NC1=O` (cyclo(FLLV[dL])), the results for the inhibition of growth at 1 µM with HCT-15 [1] and in the assay on HCT-116 [2] were 10% and 18%, respectively.
On the same counts, the results for `CC(C)C[C@@H]1NC(=O)[C@H](CC(C)C)NC(=O)[C@@H](Cc2c[nH]c3ccccc23)NC(=O)[C@H](CC(C)C)NC(=O)[C@H](C(C)C)NC1=O` (cyclo(LLVL[dW])) are 9% and 2%.
As to `CC(C)C[C@@H]1NC(=O)[C@H](CC(C)C)NC(=O)[C@@H](Cc2ccc(O)cc2)NC(=O)[C@H](CC(C)C)NC(=O)[C@H](C(C)C)NC1=O` (cyclo(LLVL[dY])), the values for the inhibition of growth at 1 µM with HCT-15 [1] and in the assay with HCT-116 [2] were 60% and 45%, respectively. The IC50 in assay [4] was 200 µM.
Turning to `CC(C)C[C@@H]1NC(=O)[C@H](Cc2ccccc2)NC(=O)[C@H](CC(C)C)NC(=O)[C@@H](C(C)C)N(C)C(=O)[C@H](CC(C)C)NC1=O`, the results for the inhibition of growth at 1 µM in the assay with HCT-15 [1] and in the assay on HCT-116 [2] were 21% and 19%, respectively.
Consider `CC(C)C[C@@H]1NC(=O)[C@H](Cc2ccc(O)cc2)NC(=O)[C@H](CC(C)C)N(C)C(=O)[C@H](C(C)C)NC(=O)[C@H](CC(C)C)NC1=O` (cyclo(LLV[NMeL]Y)), for which the inhibition of growth at 1 µM was 3% with HCT-15 [1] and 20% in the assay with HCT-116 [2].
As for `CC(C)C[C@@H]1NC(=O)[C@H](Cc2ccccc2)NC(=O)[C@H](CC(C)C)NC(=O)[C@@H](C(C)C)N(C)C(=O)[C@H](CC2CCCCC2)NC1=O` (cyclo([Cha][dNMeV]LFL)), the values for the inhibition of growth at 1 µM with HCT-15 [1] and in the assay on HCT-116 [2] were 60% and 48%, respectively. Moreover, the IC50 in assay [4] came to 16 µM; in the assay with HCT-116 [5], 2 µM.
Turning to `CC(C)C[C@@H]1NC(=O)[C@H](C(C)C)NC(=O)[C@H](CC(C)C)N(C)C(=O)[C@H](CC(C)C)N(C)C(=O)[C@H](Cc2ccccc2)NC1=O`, the inhibition of growth at 1 µM in the assay with HCT-15 [1] stood at 57%; with HCT-116 [2], 30%.
On the same counts, the results for `CC(C)C[C@@H]1NC(=O)[C@H](CC(C)C)NC(=O)[C@@H](Cc2ccccc2)NC(=O)[C@H](CC(C)C)NC(=O)[C@H](C(C)C)NC1=O` (cyclo(LLVL[dF])) are 26% and 30%.
As for `O=c1[nH]cc(F)c(=O)[nH]1` [FLUOROURACIL], the IC50 (in the assay on HCT-15 [3]; in assay [4]; with HCT-116 [5]) was 300 µM each time.
As to `CC(C)C[C@@H]1NC(=O)[C@H](Cc2ccccc2)NC(=O)[C@H](CC(C)C)NC(=O)[C@H](C(C)C)N(C)C(=O)[C@H](CC(C)C)NC1=O`, the inhibition of growth at 1 µM in the assay with HCT-15 [1] was 23%; in the assay with HCT-116 [2], 6%.
